Source: article PMC5860131, “Identification of natural products as novel ligands for the human 5-HT2C receptor” (Biophysics Reports, 2018)

Tests used:
[1] = target: T1, 5-HT2C receptor A222^5.46F (Homo sapiens, UniProt P28335, A222F/DEL255-298/G251D/H250E/H252N/INS299[…]/L248D/M247A/M300L/T253W); assay: Affinity MS assay, 5-HT2C mutant A222F; type: binding; settings: mutant A222^5.46F, n = 2
T1 construct: the N- and C-terminals were truncated by 39 and 65 residues, respectively; PreScission protease site + 10× His (C); made in house
From the text: (§1) Based on the binding poses predicted by molecular docking, single-point mutations were designed to test their impact on ligand binding. Mutations of several residues include the highly conserved Asp134^3.32, which is known to cause 5-HT1B or 5-HT2B receptors to abolish the monoamine ligand binding as reported in the literature (Wang et al. [2013]). In this study, residues forming hydrophobic interactions with the substitution groups on the aporphine scaffold of (–)-crebanine (1) were selected for mutation as well and they are Thr139^3.37, Gly218^5.42, Ala222^5.46, and Leu209^ECL2. Effects of those mutations were tested with the CPM assay and the affinity MS assay (Table 2). In the affinity MS experiment, relative ligand-binding capacity (represented by binding %) to different mutants and the wild-type receptor was compared. Among the six mutations tested, five of them reduced the binding of (–)-crebanine (1) by more than 40% relative to binding to the wild-type receptor, displaying the importance of hydrophobic interactions. […]
(§2) Four experimental replicates were prepared for each pair of the test ligand and the negative control. […] S/C ratios refer to the ratio of MS response of a specific ligand detected in the 5-HT2C incubation sample versus the control. […]

[2] = target: T2, 5-HT2C receptor (Homo sapiens, UniProt P28335, DEL255-298/G251D/H250E/H252N/INS299[…]/L248D/M247A/M300L/T253W); type: binding
T2 construct: the N- and C-terminals were truncated by 39 and 65 residues, respectively; FLAG (N); PreScission protease site + 10× His (C); made in house; host or cells: Spodoptera frugiperda (Sf9), baculovirus

[3] = target: T3, 5-HT2C receptor G218^5.42S (Homo sapiens, UniProt P28335, DEL255-298/G218S/G251D/H250E/H252N/INS299[…]/L248D/M247A/M300L/T253W); assay: Affinity MS assay, 5-HT2C mutant G218S; type: binding
T3 construct: the N- and C-terminals were truncated by 39 and 65 residues, respectively; PreScission protease site + 10× His (C); made in house
From the text: as §1, §2

[4] = target: T4, 5-HT2A receptor (Homo sapiens, UniProt P28223); assay: Ca2+ mobilization assay (Fluo-4, FLIPR), HEK 293T cells stably transfected with 5-HT2A; type: cell-based
T4 construct: expressed in transfected cells; host or cells: HEK 293T, stably transfected
From the text: The 5-HT2C receptor mainly couples to Gαq proteins. The activated 5-HT2C receptor transmits the signals from the extracellular to the intercellular side using DAG/IP3 (diacyl glycerol/inositol 1,4,5-trisphosphate) as its second massagers (Hannon and Hoyer [2008]). IP3 stimulates the endoplasmic reticulum to release calcium ions into the cytoplasm, which causes the increase of calcium concentration in cytosol. Therefore, calcium mobilization assay is commonly applied to understand how unknown small molecule ligands of 5-HT2C receptor modulate cellular signal transductions. In this case, Fluo-4 Direct dye was used as a fluorescence indicator to detect calcium flux in G protein-coupled receptor expressed cells. The fold of maximum response over average of basal reading is plotted against compound concentration to determine the potency of the compounds (Fig. 3). […]. […] After the dye loaded, cells were placed in a FLIPR^TETRA fluorescence imaging plate reader (Molecular Devices); drug dilutions, prepared at 3× final concentration in FLIPR buffer and aliquotted into 384-well plates, were also added to the FLIPR^TETRA. The fluidics module and plate reader of the FLIPR^TETRA were programmed to read baseline fluorescence for 10 s (1 read/s), then to add 10 μl of drug/well and to read for 6 min (1 read/s). […]

T3 sequence (P28335 with tags, fused parts or gaps with the stated changes): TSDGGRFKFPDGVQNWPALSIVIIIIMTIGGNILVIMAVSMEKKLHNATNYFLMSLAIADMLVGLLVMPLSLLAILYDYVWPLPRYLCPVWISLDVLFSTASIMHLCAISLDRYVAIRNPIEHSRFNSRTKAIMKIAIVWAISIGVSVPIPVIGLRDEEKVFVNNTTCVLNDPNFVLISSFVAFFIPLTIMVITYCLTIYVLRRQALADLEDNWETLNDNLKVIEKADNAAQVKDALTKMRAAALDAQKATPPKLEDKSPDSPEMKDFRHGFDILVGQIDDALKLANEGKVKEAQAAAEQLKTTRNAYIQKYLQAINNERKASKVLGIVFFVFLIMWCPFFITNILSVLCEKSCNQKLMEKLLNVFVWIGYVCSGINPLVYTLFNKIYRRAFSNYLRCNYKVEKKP
T2 sequence (P28335 with tags, fused parts or gaps with the stated changes limits assumed): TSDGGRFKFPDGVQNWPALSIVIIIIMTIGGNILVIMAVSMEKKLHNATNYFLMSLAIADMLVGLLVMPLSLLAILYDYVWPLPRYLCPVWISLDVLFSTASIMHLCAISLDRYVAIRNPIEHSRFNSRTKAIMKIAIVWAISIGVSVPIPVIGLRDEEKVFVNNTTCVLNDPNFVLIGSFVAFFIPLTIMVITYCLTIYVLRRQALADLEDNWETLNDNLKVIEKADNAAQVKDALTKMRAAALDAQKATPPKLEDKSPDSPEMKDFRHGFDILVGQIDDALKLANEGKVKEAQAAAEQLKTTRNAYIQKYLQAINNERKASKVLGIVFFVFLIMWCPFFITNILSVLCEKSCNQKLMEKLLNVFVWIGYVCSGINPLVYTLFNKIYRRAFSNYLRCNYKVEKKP
T1 sequence (P28335 with tags, fused parts or gaps with the stated changes): as the sequence (P28335 with tags, fused parts or gaps with the stated changes limits assumed) above, with A183F counted along it
T4 sequence (P28223 whole entry): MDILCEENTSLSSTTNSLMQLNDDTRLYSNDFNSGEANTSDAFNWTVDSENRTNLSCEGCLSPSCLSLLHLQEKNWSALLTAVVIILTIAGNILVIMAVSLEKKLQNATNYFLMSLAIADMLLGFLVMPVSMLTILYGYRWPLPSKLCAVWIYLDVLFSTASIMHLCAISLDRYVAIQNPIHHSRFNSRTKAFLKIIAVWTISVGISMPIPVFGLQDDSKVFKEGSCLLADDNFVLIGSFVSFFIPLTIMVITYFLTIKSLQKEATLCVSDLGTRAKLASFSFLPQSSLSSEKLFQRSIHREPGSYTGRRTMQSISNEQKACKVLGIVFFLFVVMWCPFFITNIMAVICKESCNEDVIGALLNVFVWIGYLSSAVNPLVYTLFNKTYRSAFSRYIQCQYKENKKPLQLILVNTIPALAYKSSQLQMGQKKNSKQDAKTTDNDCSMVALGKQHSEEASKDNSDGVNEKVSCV

COc1ccc2c(c1OC)C[C@@H]1c3c(cc4c(c3-2)OCO4)CCN1C [Compound 1, (–)-crebanine]
(–)-Crebanine/MS relative ligand binding [1]: 15.87%
thermal shift value (∆Tm) ([2]; CPM assay, comparing to apo-protein): 9.25 °C
(–)-Crebanine/CPM (Tm) ([2]; WT receptor, n = 2): 59.93 °C
(–)-Crebanine/MS relative ligand binding ([3]; mutant G218^5.42S, n = 2): 6.04%
ligand-binding capacity reduction versus wild-type ([3]; mutation Gly218^5.42Ser): over 60%
IC50 [4]: 564 nM
